# Where two headings read alike, the source gives them in different places.
# Legend:
# hERG potassium channel = target: T1, hERG potassium channel (Homo sapiens, UniProt Q12809); assay: Inhibition of hERG current, manual whole-cell patch-clamp in HEK293 cells stably transfected with hERG; type: cell-based
# T1 construct: expressed in transfected cells; host or cells: HEK293 (HEK-293-hERG)
# Source text: • 1. Objective: To evaluate the inhibitory effect of test compounds on hERG current in HEK293 cells stably transfected with the hERG potassium channel using manual patch-clamp technique. • 2. Experimental Materials: The test compound was Compound 3 prepared according to the examples of the present invention; the positive control compound SNDX-5613 was purchased from Chengdu Zhihui Zhongxin Biomedical Co., Ltd.; HEK293 cells were obtained from Procell (Cat. #CL-0001). […]
# Following establishment of the whole-cell recording configuration, the holding potential was maintained at -80 mV. […] Once the recorded hERG current stabilized, compounds were administered via continuous extracellular perfusion from low to high concentrations (0.3, 1, 3, 10, and 30 µmol/L). […]
# Data Acquisition and Analysis: Experimental data were acquired using Clampex software and analyzed using Clampfit software. First, the current following each compound concentration was normalized to the control current ((Peak tail current (compound))/(Peak tail current (blank))) × 100 [formula] , then the inhibition rate for each compound concentration was calculated (1−(Peak tail current (compound))/(Peak tail current (blank))) × 100 [formula] . […]
# Menin-T349M = target: T2, Menin-T349M (Homo sapiens, UniProt O00255, T344M); assay: Fluorescence polarization assay of Menin binding to MLL peptide, T349M mutant; details: FP, 8 nM Menin, 4 nM MLL peptide
# T2 sequence (O00255 1-615 isoform O00255-1 T349M): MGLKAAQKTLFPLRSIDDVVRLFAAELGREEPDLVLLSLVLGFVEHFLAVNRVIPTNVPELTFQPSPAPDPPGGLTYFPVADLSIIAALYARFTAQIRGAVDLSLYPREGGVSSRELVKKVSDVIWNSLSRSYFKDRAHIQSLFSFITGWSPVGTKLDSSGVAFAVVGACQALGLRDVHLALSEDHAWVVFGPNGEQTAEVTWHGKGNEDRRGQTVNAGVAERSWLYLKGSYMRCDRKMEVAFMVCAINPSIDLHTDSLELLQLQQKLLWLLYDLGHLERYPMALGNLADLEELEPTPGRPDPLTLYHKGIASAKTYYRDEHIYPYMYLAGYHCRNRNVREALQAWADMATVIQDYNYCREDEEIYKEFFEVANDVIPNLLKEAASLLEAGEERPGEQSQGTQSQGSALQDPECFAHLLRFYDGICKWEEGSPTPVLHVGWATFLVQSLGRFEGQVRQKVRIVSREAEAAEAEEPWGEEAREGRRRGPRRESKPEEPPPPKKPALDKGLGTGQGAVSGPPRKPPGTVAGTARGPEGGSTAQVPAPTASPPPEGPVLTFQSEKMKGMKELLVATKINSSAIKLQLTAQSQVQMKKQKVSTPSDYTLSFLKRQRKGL
# Source text: • 1. Objective: To evaluate the inhibitory activity of compounds against wild-type Menin protein (Menin-WT) and its mutant variants (Menin-M327V, Menin-M327I, Menin-T349M, Menin-S160T, Menin-S160C, Menin-G331R, and Menin-G331D). • 2. Experimental Principle: The experiment employed fluorescence polarization (FP) to detect the binding of wild-type Menin protein and its mutant variants to MLL peptide. In the absence of inhibitors, binding of wild-type Menin protein and its mutant variants to MLL peptide generates a high FP signal; upon addition of inhibitors, the binding between Menin proteins and MLL peptide is disrupted, resulting in a low FP signal. • 3. Experimental Materials: Final concentration of wild-type Menin protein and its mutant variants: 8 nM; final concentration of MLL peptide: 4 nM. Assay buffer: 50 mM Tris-HCl (pH 8.0), 120 mM NaCl, 0.005% CA-630, 2 mM DTT. • 4. […] The plate was centrifuged at 1000 rpm for 60 seconds. Subsequently, 10 µL of MLL peptide was added to each assay well. The plate was centrifuged at 1000 rpm for 60 seconds and sealed with a sealing membrane. After incubation at 23°C for 60 minutes, the plate was read using a PerkinElmer Envision reader. Data Analysis: [formula]
# Curve fitting: XLFIT software was used for curve fitting, employing a four-parameter logistic model with percent inhibition versus log(compound concentration) as variables.
# T1 sequence (Q12809 whole entry): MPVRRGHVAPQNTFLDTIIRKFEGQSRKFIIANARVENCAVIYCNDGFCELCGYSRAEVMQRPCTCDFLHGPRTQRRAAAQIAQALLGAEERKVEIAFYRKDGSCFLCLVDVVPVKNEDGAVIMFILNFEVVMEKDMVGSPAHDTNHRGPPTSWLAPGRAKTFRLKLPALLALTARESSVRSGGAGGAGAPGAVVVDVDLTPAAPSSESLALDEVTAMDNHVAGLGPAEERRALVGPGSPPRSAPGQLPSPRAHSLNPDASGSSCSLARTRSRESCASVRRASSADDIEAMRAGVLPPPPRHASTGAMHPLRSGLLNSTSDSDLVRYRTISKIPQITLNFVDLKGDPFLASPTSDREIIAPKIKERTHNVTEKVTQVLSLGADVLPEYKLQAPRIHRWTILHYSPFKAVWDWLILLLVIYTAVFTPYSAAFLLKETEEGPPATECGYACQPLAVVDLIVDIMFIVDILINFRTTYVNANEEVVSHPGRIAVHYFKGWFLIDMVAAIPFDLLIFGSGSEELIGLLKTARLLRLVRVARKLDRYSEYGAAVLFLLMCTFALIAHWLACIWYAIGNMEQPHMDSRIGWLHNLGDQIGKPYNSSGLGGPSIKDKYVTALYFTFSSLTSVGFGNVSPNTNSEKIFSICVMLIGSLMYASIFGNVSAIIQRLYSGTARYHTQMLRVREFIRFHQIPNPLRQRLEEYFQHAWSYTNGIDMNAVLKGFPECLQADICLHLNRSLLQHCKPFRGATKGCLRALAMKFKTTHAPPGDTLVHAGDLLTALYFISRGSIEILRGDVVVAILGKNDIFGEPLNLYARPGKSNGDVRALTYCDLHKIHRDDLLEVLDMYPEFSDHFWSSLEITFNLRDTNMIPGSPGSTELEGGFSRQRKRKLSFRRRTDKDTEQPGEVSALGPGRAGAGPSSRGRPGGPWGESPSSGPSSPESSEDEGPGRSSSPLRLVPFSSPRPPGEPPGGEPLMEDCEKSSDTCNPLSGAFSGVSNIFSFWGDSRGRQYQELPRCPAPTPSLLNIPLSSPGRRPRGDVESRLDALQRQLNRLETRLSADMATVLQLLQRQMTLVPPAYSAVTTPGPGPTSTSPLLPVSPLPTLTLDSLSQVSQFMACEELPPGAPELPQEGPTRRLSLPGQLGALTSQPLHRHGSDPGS
SMILES,IC50 (hERG potassium channel) [nM],IC50 (Menin-T349M) [nM],"IC50 (hERG potassium channel; HEK293-hERG cells, manual patch-clamp, 0.3-30 µmol/L, room temperature, read-out: IC50 (hERG tail current)) [nM]"
CCN(C(=O)c1cc(F)ccc1N1CCN([C@@H]2CCN([C@H](CCCN(C)CCOC)C(C)C)C2)c2ncncc21)C(C)C [Example 3],> 30000,46.7,–
"CCN(C(=O)c1cc(F)ccc1Oc1cncnc1N1CC2(CCN(C[C@H]3CC[C@H](NS(=O)(=O)CC)CC3)CC2)C1)C(C)C [SNDX-5613, revumenib]",–,271,7590

# From patent EP4775580A1, “COMPOUND, PHARMACEUTICAL COMPOSITION COMPRISING SAME, AND USE THEREOF” (Euregen Biopharma Co., Ltd., priority 2023, dated 2025)
